We go through 22 compounds from patent publication US10364256B2 (GlaxoSmithKline Intellectual Property Development Limited, priority 2015, dated 2019).

In experiment [1] the target is T1, full length Keap1 protein / full length NRF2 protein (Homo sapiens, UniProt Q14145).
T1 construct: full length NRF2 protein and full length Keap1 protein (Keap1 exists a dimer) are used; His
The experiment in a line: NRF2-Keap1 TR-FRET Low Protein Assay. The class given is binding. As to conditions: 1.25 nM Keap1 FlagHis and 2.5 nM biotin-NRF2 added. In outline: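 Flag-tagged full-length Keap1 was preincubated with compound (3-fold series) for 2.25 h at 37 °C in Tris pH 8.0/MgCl2/NaCl/BSA/DTT/CHAPS. Biotin-Avi-NRF2 (added at 2.5 nM) was then bound for 1.25 h at 4 °C. Eu-streptavidin/anti-Flag-APC TR-FRET (665/615 nm) was read after 1 h at RT, and pIC50 came from a four-parameter fit.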

Experiment [2] concerns NQO1 specific enzyme activity in BEAS-2B cells (marker for NRF2 activation). The experiment can be described thus: BEAS-2B NQO1 MTT Assay. The class given is cell-based. As to conditions: Homo sapiens, compound incubated 48 hours, read-out: EC50 (NQO1 specific enzyme activity induction). The method in brief:
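NQO1 specific activity induction is derived from the rate of MTT reduction (ΔOD/min, 570 nm, 30 min kinetic read) in crude lysates of BEAS-2B cells exposed to compound for 48 h. A 3-parameter fit gives EC50, reported as pEC50; part of each lysate goes to Cell Titer Glo.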

Structures are written as SMILES. Read-outs that look alike come from different tables or passages of the source. A value given as a limit tells only on which side of the number the result lay.

T1 sequence (Q14145 whole entry): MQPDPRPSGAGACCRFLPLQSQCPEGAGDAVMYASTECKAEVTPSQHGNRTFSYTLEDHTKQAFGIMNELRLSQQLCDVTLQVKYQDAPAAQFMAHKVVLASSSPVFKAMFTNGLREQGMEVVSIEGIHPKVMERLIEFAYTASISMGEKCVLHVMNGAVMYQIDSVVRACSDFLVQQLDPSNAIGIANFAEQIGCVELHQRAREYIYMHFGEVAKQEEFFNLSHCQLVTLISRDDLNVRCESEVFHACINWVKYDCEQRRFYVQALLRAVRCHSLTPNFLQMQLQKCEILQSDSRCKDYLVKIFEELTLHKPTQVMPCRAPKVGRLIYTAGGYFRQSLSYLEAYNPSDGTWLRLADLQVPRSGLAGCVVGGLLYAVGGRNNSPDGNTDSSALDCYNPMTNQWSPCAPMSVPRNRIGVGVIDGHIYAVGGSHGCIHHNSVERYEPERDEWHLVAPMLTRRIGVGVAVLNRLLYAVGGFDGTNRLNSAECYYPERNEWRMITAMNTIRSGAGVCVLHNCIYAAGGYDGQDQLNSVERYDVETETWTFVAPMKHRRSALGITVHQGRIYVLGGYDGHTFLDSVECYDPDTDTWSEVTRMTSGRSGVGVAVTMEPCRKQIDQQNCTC

On to `CC(Oc1cccc(-c2cccc(-n3ncc(C(=O)O)c3[C@H]3C[C@@H]3c3cn(C)nn3)c2)c1)c1cccc(-c2ccccc2)c1` (mixture of isomers) [Example 239, 1-(3′-(1-([1,1′-Biphenyl]-3-yl)ethoxy)-[1,1′-biphenyl]-3-yl)-5-((1,2-trans)-2-(1-methyl-1H-1,2,3-triazol-4-yl)cyclopropyl)-1H-pyrazole-4-carboxylic Acid], for which the IC50 in experiment [1] lay within 100 to 1000 nM. In addition, in experiment [2], the EC50 lay within 100 to 1000 nM.

In experiment [1], `Cn1cc([C@@H]2C[C@H]2c2c(C(=O)O)cnn2-c2cccc(-c3cccc(OCC4CCCC(C(F)(F)F)C4)c3)c2)nn1` (mixture of isomers) [Example 147, 5-((1,2-trans)-2-(1-Methyl-1H-1,2,3-triazol-4-yl)cyclopropyl)-1-(3′-((3-(trifluoromethyl)cyclohexyl)methoxy)-[1,1′-biphenyl]-3-yl)-1H-pyrazole-4-carboxylic acid] registered a half-inhibitory concentration (IC50) of 10 to 100 nM. In experiment [2], the EC50 lay in the range of 10 to 100 nM.

For the compound `CCC[C@@H]1CCCCN1C(=O)c1cccc(-c2cc(Cl)cc(-n3ncc(C(=O)O)c3C3CC3c3cn(C)nn3)c2)c1` (stereo partly drawn) [Example 160, 1-(5-Chloro-3′-((R)-2-propylpiperidine-1-carbonyl)-[1,1′-biphenyl]-3-yl)-5-(2-(1-methyl-1H-1,2,3-triazol-4-yl)cyclopropyl)-1H-pyrazole-4-carboxylic Acid Compound with 2,2,2-trifluoroacetic Acid (1:1)], the IC50 in experiment [1] is under 10 nM. Besides, the EC50 in experiment [2] (BEAS-2B, 48 h) is 100 to 1000 nM.

Regarding `COC1CCCCC1COc1cccc(-c2cccc(-n3ncc(C(=O)O)c3[C@H]3C[C@@H]3c3cn(C)nn3)c2)c1` (mixture of isomers) [Example 177, 1-(3′-((2-Methoxycyclohexyl)methoxy)-[1,1′-biphenyl]-3-yl)-5-((1,2-trans)-2-(1-methyl-1H-1,2,3-triazol-4-yl)cyclopropyl)-1H-pyrazole-4-carboxylic acid], the IC50 in experiment [1] was 100 to 1000 nM. Moreover, the EC50 in experiment [2] was in the range of 100 to 1000 nM.

With `Cn1cc(C2CC2c2c(C(=O)O)cnn2-c2cccc(-c3cccc(C(=O)CC4CCCCC4)c3)c2)nn1` (centres unmarked) [Example 215, 1-(3′-(2-Cyclohexylacetyl)-[1,1′-biphenyl]-3-yl)-5-(2-(1-methyl-1H-1,2,3-triazol-4-yl)cyclopropyl)-1H-pyrazole-4-carboxylic Acid], the IC50 in experiment [1] fell in the range of 10 to 100 nM. In experiment [2], the EC50 lay within 100 to 1000 nM.

For the compound `COC(CC1CCCCC1)c1cccc(-c2cccc(-n3ncc(C(=O)O)c3C3CC3c3cn(C)nn3)c2)c1` (centres unmarked) [Example 216, 1-(3′-(2-Cyclohexyl-1-methoxyethyl)-[1,1′-biphenyl]-3-yl)-5-(2-(1-methyl-1H-1,2,3-triazol-4-yl)cyclopropyl)-1H-pyrazole-4-carboxylic Acid], the IC50 in experiment [1] lay in the range of 10 to 100 nM. The EC50 in experiment [2] was in the range of 10 to 100 nM.

Consider `CCCC1CCCCN1C(=O)c1cccc(-c2cccc(-n3ncc(C(=O)O)c3C3CC3)c2)c1F` (centres unmarked) [Example 17, 5-Cyclopropyl-1-{3-[2-fluoro-3-(2-propylpiperidine-1-carbonyl)phenyl]phenyl}-1H-pyrazole-4-carboxylic Acid], for which the IC50 in experiment [1] was 10 to 100 nM. Moreover, in experiment [2], the EC50 was in the range of 100 to 1000 nM.

In experiment [1], `O=C(O)c1cnn(-c2cccc(-c3cccc(-n4ncc5c4CCC5)c3)c2)c1C1CC1` [Example 61, 5-Cyclopropyl-1-(3′-(5,6-dihydrocyclopenta[c]pyrazol-1(4H)-yl)-[1,1′-biphenyl]-3-yl)-1H-pyrazole-4-carboxylic Acid] registered an IC50 of 1000 to 10000 nM. Besides, in experiment [2] (BEAS-2B, 48 h), the EC50 was 100 to 1000 nM.

In turn, `COC(c1cccc(-c2cccc(-n3ncc(C(=O)O)c3C3CC3c3cn(C)nn3)c2)c1)C1CCCCC1` (centres unmarked) [Example 244, 1-(3′-(Cyclohexyl(methoxy)methyl)-[1,1′-biphenyl]-3-yl)-5-(2-(1-methyl-1H-1,2,3-triazol-4-yl)cyclopropyl)-1H-pyrazole-4-carboxylic acid] yielded an IC50 in experiment [1] of 10 to 100 nM. For the same compound, the EC50 in experiment [2] was in the range of 100 to 1000 nM.

The compound `Cn1cc([C@@H]2C[C@H]2c2c(C(=O)O)cnn2-c2cccc(-c3cccc(OCCC4CCCCC4)c3)c2)nn1` (racemic) [Example 245, 1-(3′-(2-cyclohexylethoxy)-[1,1′-biphenyl]-3-yl)-5-(trans-2-(1-methyl-1H-1,2,3-triazol-4-yl)cyclopropyl)-1H-pyrazole-4-carboxylic Acid] showed an IC50 in experiment [1] of 10 to 100 nM. Also, in experiment [2], the EC50 fell in the range of 10 to 100 nM.

The compound `CCC[C@@H]1CCCCN1C(=O)c1cccc(-c2cc(C)cc(-n3ncc(C(=O)O)c3[C@@H]3C[C@H]3c3cn(C)nn3)c2)c1` (single isomer, unassigned) [Example 155] gave an IC50 in experiment [1] of under 10 nM. The EC50 in experiment [2] (BEAS-2B, 48 h) lay in the range of 100 to 1000 nM.

For `Cn1cc([C@@H]2C[C@H]2c2c(C(=O)O)cnn2-c2cccc(-c3cccc(OCC4CCCCC4C(F)(F)F)c3)c2)nn1` (mixture of isomers) [Example 148, 5-((1,2-trans)-2-(1-Methyl-1H-1,2,3-triazol-4-yl)cyclopropyl)-1-(3′-((2-(trifluoromethyl)cyclohexyl)methoxy)-[1,1′-biphenyl]-3-yl)-1H-pyrazole-4-carboxylic acid], the IC50 in experiment [1] was under 10 nM. Further, the EC50 in experiment [2] lay within 10 to 100 nM.

Consider `Cn1cc([C@@H]2C[C@H]2c2c(C(=O)O)cnn2-c2cccc(-c3cccc(OCC4CCCCC4)c3)c2)nn1` [Example 171, 1-(3′-(Cyclohexylmethoxy)-[1,1′-biphenyl]-3-yl)-5-((1R,2R)-2-(1-methyl-1H-1,2,3-triazol-4-yl)cyclopropyl)-1H-pyrazole-4-carboxylic acid], for which the IC50 in experiment [1] was 10 to 100 nM. For the same compound, the EC50 in experiment [2] fell in the range of 10 to 100 nM.

`CCCC1CCCCN1C(=O)c1cccc(-c2cccc(-n3ncc(C(=O)O)c3C3CC3c3cn(C)nn3)c2)c1` (centres unmarked) [Example 42, 5-[2-(1-methyl-1H-1,2,3-triazol-4-yl)cyclopropyl]-1-{3-[3-(2-propylpiperidine-1-carbonyl)phenyl]phenyl}-1H-pyrazole-4-carboxylic Acid] returned an IC50 in experiment [1] of under 10 nM. The EC50 in experiment [2] (BEAS-2B, 48 h) was in the range of 100 to 1000 nM.

`Cn1cc([C@H]2C[C@@H]2c2c(C(=O)O)cnn2-c2cccc(-c3cccc(OCc4ccc(-c5ccccc5)cc4)c3)c2)nn1` (racemic) [Example 237, 1-(3′-([1,1′-Biphenyl]-4-ylmethoxy)-[1,1′-biphenyl]-3-yl)-5-((1,2-trans)-2-(1-methyl-1H-1,2,3-triazol-4-yl)cyclopropyl)-1H-pyrazole-4-carboxylic Acid] yielded an IC50 in experiment [1] of 100 to 1000 nM. Also, the concentration giving a half-maximal response (EC50) in experiment [2] was in the range of 100 to 1000 nM.

In experiment [1], `Cn1cc([C@@H]2C[C@H]2c2c(C(=O)O)cnn2-c2cccc(-c3cccc(OCC4CCSCC4)c3)c2)nn1` (racemic) [Example 149, 5-((1,2-trans)-2-(1-Methyl-1H-1,2,3-triazol-4-yl)cyclopropyl)-1-(3′-((tetrahydro-2H-thiopyran-4-yl)methoxy)-[1,1′-biphenyl]-3-yl)-1H-pyrazole-4-carboxylic acid] displayed an IC50 of 10 to 100 nM. The EC50 in experiment [2] fell in the range of 100 to 1000 nM.

With `Cn1cc([C@@H]2C[C@H]2c2c(C(=O)O)cnn2-c2cccc(-c3cccc(OC(C4CCCCC4)C(F)(F)F)c3)c2)nn1` (mixture of isomers) [Example 157, 1-(3′-(1-Cyclohexyl-2,2,2-trifluoroethoxy)-[1,1′-biphenyl]-3-yl)-5-((1,2-trans)-2-(1-methyl-1H-1,2,3-triazol-4-yl)cyclopropyl)-1H-pyrazole-4-carboxylic Acid], the IC50 in experiment [1] was in the range of 10 to 100 nM. Besides, the EC50 in experiment [2] was 10 to 100 nM.

In experiment [1], `Cn1cc(C2CC2c2c(C(=O)O)cnn2-c2cccc(-c3cccc(OCCC(C)(C)C)c3)c2)nn1` (centres unmarked) [Example 225, 1-(3′-(3,3-Dimethylbutoxy)-[1,1′-biphenyl]-3-yl)-5-(2-(1-methyl-1H-1,2,3-triazol-4-yl)cyclopropyl)-1H-pyrazole-4-carboxylic acid] displayed an IC50 of 10 to 100 nM. In experiment [2], the half-maximal effective concentration (EC50) lay within 10 to 100 nM.

In experiment [1], `CCC[C@@H]1CCCCN1C(=O)c1cccc(-c2cc(C)cc(-n3ncc(C(=O)O)c3C3CC3c3cn(C)nn3)c2)c1` (stereo partly drawn) [Example 154, 5-(2-(1-Methyl-1H-1,2,3-triazol-4-yl)cyclopropyl)-1-(5-methyl-3′-((R)-2-propylpiperidine-1-carbonyl)-[1,1′-biphenyl]-3-yl)-1H-pyrazole-4-carboxylic Acid] registered an IC50 of under 10 nM. Moreover, the EC50 in experiment [2] (BEAS-2B, 48 h) was in the range of 100 to 1000 nM.

Regarding `Cc1nnc(-c2cccc(-c3cccc(-n4ncc(C(=O)O)c4C4CC4)c3)c2)o1` [Example 210, 5S-Cyclopropyl-1-(3′-(5-methyl-1,3,4-oxadiazol-2-yl)-[1,1′-biphenyl]-3-yl)-1H-pyrazole-4-carboxylic acid], in experiment [1], the IC50 lay in the range of 10000 to 100000 nM. The EC50 in experiment [2] lay in the range of 100 to 1000 nM.

Turning to `Cn1cc(C2CC2c2c(C(=O)O)cnn2-c2cccc(-c3cccc(OCc4ccc(F)cc4)c3)c2)nn1` (centres unmarked) [Example 223, 1-(3′-((4-Fluorobenzyl)oxy)-[1,1′-biphenyl]-3-yl)-5-(2-(1-methyl-1H-1,2,3-triazol-4-yl)cyclopropyl)-1H-pyrazole-4-carboxylic acid], the IC50 in experiment [1] fell in the range of 100 to 1000 nM. The EC50 in experiment [2] fell in the range of 100 to 1000 nM.

With `Cn1cc(C2CC2c2c(C(=O)O)cnn2-c2cccc(-c3cccc(C(O)CC4CCCCC4)c3)c2)nn1` (centres unmarked) [Example 217, 1-(3′-(2-Cyclohexyl-1-hydroxyethyl)-[1,1′-biphenyl]-3-yl)-5-(2-(1-methyl-1H-1,2,3-triazol-4-yl)cyclopropyl)-1H-pyrazole-4-carboxylic acid], the IC50 in experiment [1] was in the range of 10 to 100 nM. Moreover, in experiment [2], the EC50 lay within 100 to 1000 nM.
